# Reference: patent US12534496B2, “Polymorphic forms of Cyclo (-His-Pro) and methods of use to treat kidney disease” (NovMetaPharma Co., Ltd., priority 2018, dated 2026)
# Values joined by “and” are separate entries in the source; they are usually repeats but may differ in a detail not shown here. Identical values can stand only once. “Also recorded” adds a separate entry of the source.
# Experiments:
# Type in all cases: physicochemical
# [1] = pKa analysis via potentiometric acid/base titration
# Experimental: pKa analysis was carried out on Pattern 1 via a potentiometric technique which is acid/base titration to determine the pKa point.
# [2] = Approximate solubility of CHP Pattern 1 by solvent addition technique
# Experimental: The approximate solubility of CHP in 37 selected solvent systems (Table 13) was estimated by solvent addition technique. The following procedure was used: • Approximately 20 mg of CHP Pattern 1 was weighed out into each of 37vials. • Each solvent/solvent mixture was added to the appropriate vial in 5 volume aliquots (100 μL) until dissolution was observed or a maximum of 2 mL solvent was added. • In between additions, the sample was heated to 40° C. to check for dissolution at elevated temperature. • If 2 mL of solvent was added without dissolution of the material, solubility was calculated to be below 10 mg/mL. • After solvent addition, all 37 vials were placed in a fridge to crash cool between 2-8° C. for ca. 18 hours. • Any solids present were isolated by centrifuge filtration and analyzed by XRPD (where material amount allowed). • Where no solids were produced, vials were uncapped and left to evaporate at ambient temperature. • Any solids present were analyzed by XRPD (where material amount allowed).
# [3] = pH solubility assessment in buffers at 37 °C; settings: 100 mg solid
# Experimental: CHP patterns 1 and 2 were prepared for pH solubility assessment as follows: • 100 mg of CHP pattern 1 and pattern 2 were each weighed out into 4, 5 mL screw top glass vials; • 100 μL of a selected buffer, pre-heated to 37° C., was added to each vial; • Samples were heated to 37° C. in an incubator shaker for ca. 10 minutes after each volume of buffer and checked for sample dissolution.
# [4] = Solution state chemical stability in water/acetone and EtOH/water/MtBE (HPLC purity); settings: 10 mg/ml; for Observation: up to 20 h
# Experimental: Solution state chemical stability of the compound was studied in different solvent systems at different temperatures (Table 4). The solution was held at 50° C. and 80° C., and purity of the solution was tracked. The compound was generally stable for at least 20 hours.
# [5] = Dynamic vapor sorption (DVS) at 25 °C with post-DVS XRPD
# Experimental: DVS was carried out by placing an approximately 10-20 mg sample into a mesh vapour sorption balance pan and loaded into a DVS Intrinsic Dynamic Vapour Sorption Balance by Surface Measurement Systems. The sample was subjected to a ramping profile from 40 to 90% relative humidity (RH) at 10% increments, maintaining the sample at each step until a stable weight had been achieved (dm/dt 0.004%, minimum step length 30 minutes, maximum step length 500 minutes) at 25° C. After completion of the sorption cycle, the sample was dried using the same procedure to 0% RH and then a second sorption cycle back to 40% RH. Two cycles were performed. The weight change during the sorption/desorption cycles were plotted, allowing for the hygroscopic nature of the sample to be determined. XRPD analysis was then carried out on any solid retained.
# Approximately, 10-20 mg of sample was placed into a mesh vapor sorption balance pan and loaded into a DVS Intrinsic dynamic vapor sorption balance by Surface Measurement Systems. The sample was subjected to a ramping profile from 40-90% relative humidity (RH) at 10% increments, maintaining the sample at each step until a stable weight had been achieved (dm/dt 0.004%, minimum step length 30 minutes, maximum step length 500 minutes) at 25° C. After completion of the sorption cycle, the sample was dried using the same procedure to 0% RH and then a second sorption cycle back to 40% RH. Two cycles were performed. The weight change during the sorption/desorption cycles were plotted, allowing for the hygroscopic nature of the sample to be determined. XRPD analysis was then carried out on any solid retained.
# [6] = GMP stability study of CHP anhydrate and CHP hydrate under accelerated conditions (total impurities); settings: for Growth of total Impurities: 40 °C/75% RH
# Experimental: CHP anhydrate (Pattern 1) and hydrate (Pattern 2) compounds were manufactured under GMP conditions. A stability study for the CHP anhydrate compound was conducted under ccelerated conditions (40±5° C./75±5% RH) for six months and room temperature conditions (25±5° C./60±5% RH) for 12 months. A further stability study for the CHP hydrate compound was conducted under accelerated conditions (40±5° C./75±5% RH) for 6 months (Table 18).
compound,measurement,setting,value
"O=C1N[C@@H](Cc2cnc[nH]2)C(=O)N2CCC[C@@H]12 [Pattern 1, Cyclo (-His-Pro)]",pKa,[1],6.4 and 6.38
same,Approximate Solubility,[2]; THF,≤ 10000 µg/mL
same,Approximate Solubility,[2]; acetone,≤ 10000 µg/mL
same,Approximate Solubility,[2]; acetonitrile,≤ 10000 µg/mL
same,Approximate Solubility,[2]; water,≥ 200000 µg/mL
same,Approximate Solubility,[2]; water:acetone [90:10],≥ 200000 µg/mL
same,μL for Dissolution at 37° C.,[3]; buffer pH 1,300 µL
same,μL for Dissolution at 37° C.,[3]; buffer pH 4,300 µL
same,μL for Dissolution at 37° C.,[3]; buffer pH 6.8,300 µL
same,μL for Dissolution at 37° C.,[3]; buffer pH 7.2,300 µL
same,Purity (a %),"[4]; (EtOH:H2O = 9:1):MTBE = 1:3 (v/v), 50 °C, 0 h",99.82%
same,Purity (a %),"[4]; (EtOH:H2O = 9:1):MTBE = 1:3 (v/v), 50 °C, 2 h",99.77%
same,Purity (a %),"[4]; (EtOH:H2O = 9:1):MTBE = 1:3 (v/v), 50 °C, 20 h",99.82%
same,Observation,"[4]; (EtOH:H2O = 9:1):MTBE = 1:3 (v/v), 50 °C",No change
same,Purity (a %),"[4]; EtOH:H2O = 9:1 (v/v), 50 °C, 0 h",99.76%
same,Purity (a %),"[4]; EtOH:H2O = 9:1 (v/v), 50 °C, 2 h",99.86%
same,Purity (a %),"[4]; EtOH:H2O = 9:1 (v/v), 50 °C, 20 h",99.69%
same,Observation,"[4]; EtOH:H2O = 9:1 (v/v), 50 °C",No change
same,Purity (a %),"[4]; H2O, 80 °C, 0 h",99.82%
same,Purity (a %),"[4]; H2O, 80 °C, 2 h",99.77%
same,Purity (a %),"[4]; H2O, 80 °C, 20 h",99.82%
same,Observation,"[4]; H2O, 80 °C",No change
same,Purity (a %),"[4]; H2O:Acetone = 0.5:9.5 (v/v), 50 °C, 0 h",99.77%
same,Purity (a %),"[4]; H2O:Acetone = 0.5:9.5 (v/v), 50 °C, 2 h",99.72%
same,Purity (a %),"[4]; H2O:Acetone = 0.5:9.5 (v/v), 50 °C, 20 h",99.73%
same,Observation,"[4]; H2O:Acetone = 0.5:9.5 (v/v), 50 °C",No change
same,Post-DVS XRPD form,[5]; after DVS cycles at 25 °C,"a new form, assigned as pattern 2; also recorded: re-crystallized to pattern 2"
same,DVS maximum uptake after conversion to Pattern 2,"[5]; between 0 and 90% RH, 25 °C",0.8 wt %
same,DVS weight gain (change in mass),"[5]; from 60% RH to 90% RH, 25 °C",6.3%
same,Growth of total Impurities,[6]; 0M,0%
same,Growth of total Impurities,[6]; 1M,0%
same,Growth of total Impurities,"[6]; 3M, listed as CHP anhydrate (pattern 1)",0.27%
same,Growth of total Impurities,"[6]; 6M, listed as CHP anhydrate (pattern 1)",0.53%
same,Water content reached by moisture absorption,[6]; during the stability study,7%
